The subject of data set [1] is solid and lymphoproliferative murine tumors. To be noted: background statement; cited from earlier work.
The conditions of data set [2]: background statement; cited from earlier work.
For data set [3], the system named is ovarian carcinoma (A2780). In words: Inhibition of in vitro proliferation of human tumor cells, A2780. Format: cell-based. To be noted: 72 hours treatment, cell number vs untreated control; read-out: Inhibitory concentrations (IC50) A2780. The method, then: (§1) The antitumoral activity of compounds having the formula trans-[PtCl2(NH3){Z-HN═C(OMe)Me}] (1) and trans-[PtCl2(NH3){E-HN═C(OMe)Me}] (2) was tested. Specifically, the antitumoral activity of compounds (1) and (2) was analyzed in experimental systems in vitro, testing for inhibition of the proliferation of human tumor cells in culture and in vivo by testing the increment in survival of mice carriers of P388 murine leukemia.
(§2) The inhibitory effect of compounds (1) and (2) on the in vitro proliferation of human tumor cells of ovarian carcinoma (A2780), pulmonary carcinoma (Calu), colon carcinoma (LoVo) and on an ovarian carcinoma line (A2780/cp8) with resistance to cisplatinum is presented in the following Table I.
(§3) Proliferation inhibition is expressed by means of IC50 values, which indicate the concentration of compound (μM) in the culture medium that determines a 50% reduction in the proliferation of the treated cells with respect to untreated cells.
(§4) The IC50 values were extrapolated from dose-response curves obtained by treating for 72 hours the tumor cells with various concentrations of the tested compounds dissolved in the culture medium and checking, at the end of the incubation period, the number of cells present in the treated samples with respect to the number of cells in the untreated samples (control).

In data set [4] the test system is pulmonary carcinoma (Calu). The data set is described as follows: Inhibition of in vitro proliferation of human tumor cells, Calu. Format: cell-based. The note with it: 72 hours treatment, cell number vs untreated control; read-out: Inhibitory concentrations (IC50) Calu. The method, then: as §1, §2, §3, §4
The subject of data set [5] is colon carcinoma (LoVo). In words: Inhibition of in vitro proliferation of human tumor cells, LoVo. Format: cell-based. To be noted: 72 hours treatment, cell number vs untreated control; read-out: Inhibitory concentrations (IC50) Lo Vo. The method, then: as §1, §2, §3, §4
Data set [6] has as its system ovarian carcinoma line (A2780/cp8) with resistance to cisplatinum. In words: Inhibition of in vitro proliferation of human tumor cells, A2780/cp8. The class given is cell-based. To be noted: 72 hours treatment, cisplatinum-resistant line; read-out: Inhibitory concentrations (IC50) A2780/cp8. On the procedure:
as §1, §2, §3, §4

Data set [7] relates to P388 murine leukaemia. In words: Antitumoral activity in vivo, survival of P388 murine leukemia carrier mice. Further details: species or system B6D2F1 female mice. The method, then: as §1
The antiumoral activity in vivo of compounds 1 and 2, expressed as an increment in the survival of P388 murine leukemia carrier mice, was also tested.
(§5) ^a P388 leukemic cells (10^6/animal) were inoculated in the peritoneum in B6D2F1 female mice (body weight=18 g) on day 0; treatment with the platinum compounds, dissolved at the time of use in a physiological solution, was performed on days 1-7, administering IP the doses indicated in the table in a volume equal to 0.1 ml/10 g body weight.
^c ILS=(average of the days of survival of treated mice/average of days of survival of untreated mice) X 100.

Data set [8] is described as follows: Body weight variation and toxicity in treated P388 carrier mice. Format: in vivo. The note with it: at the end of the treatment. The method, then:
as §5
^b Percentage variation of body weight of the animals at the end of the treatment.

The test system of data set [9] is tumor cells. The note with it: cited from earlier work.
[10] abbreviates: 10 mg/kg IP daily, ILS = (average survival days treated/untreated) × 100.
[11] abbreviates: 15 mg/kg IP daily, ILS = (average survival days treated/untreated) × 100.
The mark [12] stands for this setting: 20 mg/kg IP daily, ILS calculated on 4 animals.

Marks after values point to notes of the source that are not given here.

Regarding `COC(C)=N.COC(C)=N.[Cl][Pt][Cl]` [trans-[PtCl2{E-HN═C(OMe)Me}2]], the “antitumoral activity in vivo” value in [1] is “antitumoral activity in vivo”.
`N.N.[Cl][Pt+2][Cl]` [trans-DDP, trans-[PtCl2(NH3)2]]: the antitumoral activity result in [2] is “no antitumoral activity”.
For `N.NC1CCCCC1.[OH][Pt]([OH])([Cl])[Cl]` [trans-[PtCl2(OH)2(NH3){NH2(C6H11)}]], in data set [2], the antitumoral activity entry is “antitumoral activity in vitro and in vivo”.
In the case of `COC(C)=N.N.[Cl][Pt][Cl]` [Compound 1, trans-[PtCl2(NH3){Z-HN═C(OMe)Me}]], the IC50 worked out at 37 µM in data set [3], 90 µM in [4], 21 µM in data set [5] and 35 µM in [6]. Besides, the figures for the ILS in data set [7] (setting [10]), in data set [7] (setting [11]) and in [7] (setting [12]) were 165, 173 and 190^d, respectively. Further, the “Percentage variation of body weight” value in data set [8] (10 mg/kg IP daily) was −1.5%; in data set [8] (15 mg/kg IP daily) it was −4.4%; in [8] (20 mg/kg IP daily), −11.5%.
As for `COC(C)=N.N.[Cl][Pt][Cl]` [Compound 2, trans-[PtCl2(NH3){E-HN═C(OMe)Me}]], the IC50 in [3] was found to be 8.5 µM; in data set [4], 55 µM; in [5] it was 7 µM; in data set [6], 8.6 µM. Further, the ILS is given as 128 in [7] (setting [10]), 152 in data set [7] (setting [11]) and 132^e in data set [7] (setting [12]). Besides, the “Percentage variation of body weight” value in data set [8] (10 mg/kg IP daily) is given as −1.8%; in data set [8] (15 mg/kg IP daily) it was −3.1%; in [8] (20 mg/kg IP daily), −10%.
In the case of `[Cl][Pt][Cl].c1ccncc1.c1ccncc1` [trans-[PtCl2(pyridine)2]], the “cytotoxic effect in vitro against tumor cells” value in [9] is on record as “higher cytotoxic effect in vitro against tumor cells than trans-DDP”.

(Values after patent publication US6458983B1, “Method for synthesizing complexes of platinum with iminoethers and their use as antitumoral drugs and nucleotide-base modifiers” (priority 1998, dated 2002).)
